Results from publication PMC8151276, “An Integrated Approach toward NanoBRET Tracers for Analysis of GPCR Ligand Engagement” (Molecules, 2021).

Tests used:
Assay type in all cases: binding
AVPR1B = target: T1, AVPR1B (Homo sapiens, UniProt P47901); experiment: NanoBRET screen HiBiT-AVPR1B in HEK293
T1 construct: purchased Promega (in-house HiBiT-GPCR construct library, NanoBRET)
T1 sequence (P47901 1-424): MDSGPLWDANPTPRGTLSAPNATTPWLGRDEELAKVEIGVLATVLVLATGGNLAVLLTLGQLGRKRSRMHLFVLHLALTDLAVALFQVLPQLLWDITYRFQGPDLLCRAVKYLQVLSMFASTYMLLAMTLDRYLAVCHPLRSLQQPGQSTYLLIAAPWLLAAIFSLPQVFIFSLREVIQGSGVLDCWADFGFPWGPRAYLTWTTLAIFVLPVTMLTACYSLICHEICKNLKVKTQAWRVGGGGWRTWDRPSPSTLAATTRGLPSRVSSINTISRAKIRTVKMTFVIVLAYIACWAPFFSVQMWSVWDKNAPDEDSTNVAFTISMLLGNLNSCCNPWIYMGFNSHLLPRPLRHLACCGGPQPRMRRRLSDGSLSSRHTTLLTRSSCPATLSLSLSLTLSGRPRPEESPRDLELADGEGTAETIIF
Description: (§1) Each tracer candidate was screened across the entire library of HiBiT-GPCR constructs using NanoBRET as the detection modality. As depicted in Figure 4A, the specificity of interactions was evaluated through decrease in BRET due to competitive displacement of a bound tracer by excess parental compound. Each tracer was analyzed for binding to each HiBiT-GPCR fusion in the absence and in the presence of competing parental compound. Briefly, HEK293 cells were transfected with HiBiT-GPCR constructs diluted into promoterless DNA to reduce expression and maximize translocation to the cell surface. Each tracer candidate was then screened at concentrations of 1 μM and 0.1 μM across cells expressing these fusions. Cells were treated for 1.5 h with tracer either alone or in the presence of 20 μM competing parental compound (i.e., control). BRET was measured upon addition of purified LgBiT and subsequent complementation with HiBiT genetically fused to a GPCR. The specificity of interactions was assessed through a decrease in BRET signal due to competitive displacement of the bound tracer. To further gauge the robustness of these interactions, the fold response over the control (i.e., BRETtracer/BRETcontrol) was calculated. We chose a 1.5-fold response, which translates to ≥7-fold signal over noise as the minimal threshold required to score an interaction as positive. […]. Below we highlight the screening results obtained for our exemplary fluorescent tracers based on Clozapine, Amitriptyline and AZD1283.
(§2) HiBiT-GPCR DNA constructs were diluted in 10 mM Tris pH 8 to a final concentration of 0.01 μg/μL, arrayed in 96-well plates and stored at −20 °C. For transfection, HEK293 cells were suspended in Opti-MEM (without phenol red) supplemented with 2% fetal bovine serum (Seradigm) and 100 units/mL penicillin–streptomycin (Gibco) at a final concentration of 220,000 cells/mL and dispensed into white 96-well plates at 90 μL/well. Subsequent transfections and screens were carried using an Agilent Bravo Automated Liquid Handling Platform. First, the 96-well HiBiT DNA arrays were diluted 25-fold in Opti-MEM (without serum or phenol red) to a final concentration of 0.0004 μg/μL and 20 μL of the diluted DNAs were transferred into new 96-well plates. Next, promoterless carrier DNA (1 μg/μL) was diluted 25-fold (0.04 μg/μL) and then dispensed into the diluted arrays at 20 μL/well. Following brief mixing, Viafect transfection reagent (Promega) diluted 16-fold into Opti-MEM was dispensed into the plates at 40 μL/well. After mixing by pipetting, plates were incubated for 10 min on the pipetting station deck. The DNA-transfection reagent complexes were then added to plates containing cells. To facilitate the screen, 10 μL of DNA-transfection reagent complexes were added in duplicates to the top 4 and bottom 4 rows, resulting in two identical 48-well arrays per plate. Plates with transfected cells were incubated for 18–20 h at 37 °C/5% CO2. A screen of each tracer across the entire library using two different concentrations requires duplicate plates of transfected cells. Depending on the number of tracers being screened, transfections can be scaled up using the same ratios. The next day, for each tracer, four 20× screening solutions in tracer dilution buffer (Promega) were prepared: two duplicates at final concentration of 20 μM and two duplicates at a final concentration of 2 μM. A competing unmodified compound was added to one of each duplicate at a final concentration of 400 μM. The four resulting solutions were diluted 4-fold in Opti-MEM without serum or phenol red to generate 5× solutions (5 µM and 0.5 µM tracer +/− 100 μM competing compound). To screen the library, a BioTek MultiFlo FX liquid dispenser was used to dispense 22.5 µL of tracer solution to the top 4 rows and 22.5 µL tracer + competing compound solution to the 4 bottom rows. Plates were briefly mixed on an orbital shaker and incubated for 1.5 h at room temperature. […]

CCR3 = target: T2, CCR3 (Homo sapiens, UniProt P51677); experiment: NanoBRET screen HiBiT-CCR3 in HEK293
T2 construct: purchased Promega (in-house HiBiT-GPCR construct library, NanoBRET)
T2 sequence (P51677 1-355): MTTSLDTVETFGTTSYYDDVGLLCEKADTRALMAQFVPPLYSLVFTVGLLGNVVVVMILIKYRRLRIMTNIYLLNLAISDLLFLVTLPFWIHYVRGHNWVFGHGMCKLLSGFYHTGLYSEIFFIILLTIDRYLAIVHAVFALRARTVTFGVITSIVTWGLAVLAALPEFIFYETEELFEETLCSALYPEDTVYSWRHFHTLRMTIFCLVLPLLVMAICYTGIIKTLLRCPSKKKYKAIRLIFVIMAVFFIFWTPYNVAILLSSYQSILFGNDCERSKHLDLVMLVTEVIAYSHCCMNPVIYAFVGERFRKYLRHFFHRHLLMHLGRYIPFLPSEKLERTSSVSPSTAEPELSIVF
Description: as §1, §2

C3AR1 = target: T3, C3AR1 (Homo sapiens, UniProt Q16581); experiment: NanoBRET screen HiBiT-C3AR1 in HEK293
T3 construct: purchased Promega (in-house HiBiT-GPCR construct library, NanoBRET)
T3 sequence (Q16581 1-482): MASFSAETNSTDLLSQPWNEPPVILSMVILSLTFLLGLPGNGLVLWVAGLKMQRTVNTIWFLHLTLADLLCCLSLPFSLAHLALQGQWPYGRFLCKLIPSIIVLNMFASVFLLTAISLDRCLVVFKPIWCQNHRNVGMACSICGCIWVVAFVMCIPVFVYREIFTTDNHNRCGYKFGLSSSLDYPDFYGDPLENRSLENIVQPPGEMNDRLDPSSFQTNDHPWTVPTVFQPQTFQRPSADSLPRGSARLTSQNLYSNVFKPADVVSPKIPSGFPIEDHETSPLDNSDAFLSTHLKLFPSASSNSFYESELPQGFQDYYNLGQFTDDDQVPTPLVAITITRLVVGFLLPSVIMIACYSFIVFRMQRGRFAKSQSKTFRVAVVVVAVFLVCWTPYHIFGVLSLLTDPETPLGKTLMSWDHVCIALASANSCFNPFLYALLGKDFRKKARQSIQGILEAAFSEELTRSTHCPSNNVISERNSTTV
Description: as §1, §2

CXCR4 = target: T4, CXCR4 (Homo sapiens, UniProt P61073); experiment: NanoBRET screen HiBiT-CXCR4 in HEK293
T4 construct: purchased Promega (in-house HiBiT-GPCR construct library, NanoBRET)
Description: as §1, §2

T4 sequence (P61073 whole entry): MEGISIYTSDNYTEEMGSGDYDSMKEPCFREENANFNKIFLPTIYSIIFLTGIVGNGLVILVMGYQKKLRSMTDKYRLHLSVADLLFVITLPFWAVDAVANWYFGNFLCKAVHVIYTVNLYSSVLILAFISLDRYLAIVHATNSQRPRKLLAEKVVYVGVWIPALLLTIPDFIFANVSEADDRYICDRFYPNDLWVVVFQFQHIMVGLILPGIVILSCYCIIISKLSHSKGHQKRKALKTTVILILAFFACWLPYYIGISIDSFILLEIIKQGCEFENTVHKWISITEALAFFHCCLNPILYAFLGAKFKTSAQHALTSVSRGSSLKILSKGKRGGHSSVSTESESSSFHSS

| NanoBRET Fold Response (AVPR1B; 0.1μM tracer) | NanoBRET Fold Response (AVPR1B; 1μM tracer) | NanoBRET Fold Response (CCR3; 0.1μM tracer) | NanoBRET Fold Response (CCR3; 1μM tracer) | NanoBRET Fold Response (C3AR1; 0.1μM tracer) | NanoBRET Fold Response (C3AR1; 1μM tracer) | NanoBRET Fold Response (CXCR4; 0.1μM tracer) | NanoBRET Fold Response (CXCR4; 1μM tracer) | SMILES | NanoBRET Fold Response (AVPR1B; AVPR1B, 0.1μM tracer) | NanoBRET Fold Response (CCR3; CCR3, 0.1μM tracer) | NanoBRET Fold Response (CCR3; CCR3, 1μM tracer) | NanoBRET Fold Response (C3AR1; C3AR1, 0.1μM tracer) | NanoBRET Fold Response (C3AR1; C3AR1, 1μM tracer) | NanoBRET Fold Response (CXCR4; CXCR4, 0.1μM tracer) | NanoBRET Fold Response (CXCR4; CXCR4, 1μM tracer) | other results |
| --- | --- | --- | --- | --- | --- | --- | --- | --- | --- | --- | --- | --- | --- | --- | --- | --- |
| 0.90 | 1.00 | 1.27 | 0.96 | 0.88 | 0.98 | 1.11 | 0.82 | COc1ccc2c(n1)c(CCNC(C)=O)cn2CCNC(=O)CCc1ccc2n1[B-](F)(F)[N+]1=C(c3ccc[nH]3)C=CC1=C2 [Azamelatonin-1-NB590] | – | – | – | – | – | – | – | – |
| 1.50 | 0.90 | 1.40 | 1.25 | 0.78 | 0.87 | 1.00 | 0.81 | COc1ccc2[nH]c(-c3ccc(CNC(=O)CCOCCOCCOCCOCCNC(=O)CCc4ccc5n4[B-](F)(F)[N+]4=C(c6ccc[nH]6)C=CC4=C5)cc3)c(CCNC(C)=O)c2n1 [AzomelatoninICO9-2-NB590] | – | – | – | – | – | – | – | – |
| – | – | – | – | – | – | – | – | O=C(CCOCCOCCOCCOCCNC(=O)CCc1ccc2n1[B-](F)(F)[N+]1=C(c3ccc[nH]3)C=CC1=C2)NCCCN1CCN(C2=Nc3cc(Cl)ccc3Nc3ccccc32)CC1 [Clozapine-a-2-NB590] | 0.98 | 0.95 | 0.78 | 1.18 | 1.21 | 1.04 | 0.85 | NanoBRET Fold Response (AVPR1B; AVPR1B, 1μM tracer): 0.97 |
| – | – | – | – | – | – | – | – | CN1CCN(C2=Nc3cc(Cl)ccc3Nc3ccc(CNC(=O)CCOCCOCCOCCOCCNC(=O)CCc4ccc5n4[B-](F)(F)[N+]4=C(c6ccc[nH]6)C=CC4=C5)cc32)CC1 [Clozapine-b-2-NB590] | 0.98 | 0.98 | 1.00 | 0.99 | 1.02 | 1.03 | 1.07 | – |
| – | – | – | – | – | – | – | – | COc1ccccc1N1CCN(CCCCN2C(=O)c3ccc(CNC(=O)CCOCCOCCOCCOCCNC(=O)CCc4ccc5n4[B-](F)(F)[N+]4=C(c6ccc[nH]6)C=CC4=C5)cc3C2=O)CC1 [NAN-190-2-NB590] | – | – | – | – | – | – | – | NanoBRET Fold Response (CCR3; CCR3, tracer 0.1μM): 1.08; NanoBRET Fold Response (CCR3; CCR3, tracer 1μM): 1.11; NanoBRET Fold Response (C3AR1; C3AR1, tracer 0.1μM): 1.03; NanoBRET Fold Response (C3AR1; C3AR1, tracer 1μM): 0.96; NanoBRET Fold Response (CXCR4; CXCR4, tracer 0.1μM): 1.00; NanoBRET Fold Response (CXCR4; CXCR4, tracer 1μM): 1.03 |
